ChEMBL document CHEMBL1201862, “PubChem BioAssay data set” (2004)
Activity calls are given as the source filed them.

Legend:
[1] = Late stage assay provider results from the probe development effort to identify selective inhibitors of heat shock protein 90 (HSP90): Absorbance-based cell proliferation assay in SKBR3 cells.; assay type: functional; settings: SK-BR-3
[2] = Late stage assay provider results from the probe development effort to identify selective inhibitors of heat shock protein 90 (HSP90): Absorbance-based cell proliferation assay in MCF7 cells.; assay type: functional
[3] = MITF Orthogonal Assay: SK-MEL-5 CTG Assay Measured in Cell-Based System Using Plate Reader - 2084-02_Inhibitor_Dose_DryPowder_Activity_Set7.; assay type: functional
[4] = MITF: Counter assay: A375 proliferation Measured in Cell-Based System Using Plate Reader - 2084-03_Inhibitor_Dose_DryPowder_Activity_Set8.; assay type: functional; settings: A-375
[5] = TRPM1 promoter luciferase reporter signal decrease, dose response, MITF inhibitor project, cell-based, SK-MEL-5, dry powder, set 8 (AID 624430); assay type: functional
[6] = target: T1, Heat shock factor protein 1 (Mus musculus, UniProt P38532); assay: HSF1 potentiators in luciferase reporter cells, confirmation, cell-based, NIH3T3, luminescence, dose retest (AID 435004); assay type: functional;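 note: stress induced by proteasome inhibitor MG132 added 30 min after compound; luciferase reporter driven by HSF1 response element in NIH3T3 cells; actives raise luminescence as potentiators of the MG132 stress response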
T1 sequence (P38532 whole entry): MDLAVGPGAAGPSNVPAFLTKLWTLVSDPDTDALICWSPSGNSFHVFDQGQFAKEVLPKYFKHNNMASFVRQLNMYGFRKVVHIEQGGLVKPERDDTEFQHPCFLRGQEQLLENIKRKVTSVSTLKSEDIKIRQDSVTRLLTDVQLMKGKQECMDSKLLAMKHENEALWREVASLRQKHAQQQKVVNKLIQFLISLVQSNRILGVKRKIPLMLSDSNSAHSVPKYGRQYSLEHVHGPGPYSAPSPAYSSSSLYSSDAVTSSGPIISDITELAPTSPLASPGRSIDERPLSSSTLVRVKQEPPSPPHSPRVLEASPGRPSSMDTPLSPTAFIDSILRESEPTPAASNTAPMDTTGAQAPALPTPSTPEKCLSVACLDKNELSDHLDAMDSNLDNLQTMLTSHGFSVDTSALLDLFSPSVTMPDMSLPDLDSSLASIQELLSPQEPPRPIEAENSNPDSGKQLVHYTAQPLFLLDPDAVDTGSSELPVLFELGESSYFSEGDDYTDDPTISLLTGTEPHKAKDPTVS

[7] = target: T2, Replicative DNA helicase DnaB (Mycobacterium tuberculosis, UniProt P9WMR3); assay: DnaB intein splicing inhibitors, dose response, biochemical, cell-free fluorescence (AID 449749); assay type: functional
T2 sequence (P9WMR3 whole entry): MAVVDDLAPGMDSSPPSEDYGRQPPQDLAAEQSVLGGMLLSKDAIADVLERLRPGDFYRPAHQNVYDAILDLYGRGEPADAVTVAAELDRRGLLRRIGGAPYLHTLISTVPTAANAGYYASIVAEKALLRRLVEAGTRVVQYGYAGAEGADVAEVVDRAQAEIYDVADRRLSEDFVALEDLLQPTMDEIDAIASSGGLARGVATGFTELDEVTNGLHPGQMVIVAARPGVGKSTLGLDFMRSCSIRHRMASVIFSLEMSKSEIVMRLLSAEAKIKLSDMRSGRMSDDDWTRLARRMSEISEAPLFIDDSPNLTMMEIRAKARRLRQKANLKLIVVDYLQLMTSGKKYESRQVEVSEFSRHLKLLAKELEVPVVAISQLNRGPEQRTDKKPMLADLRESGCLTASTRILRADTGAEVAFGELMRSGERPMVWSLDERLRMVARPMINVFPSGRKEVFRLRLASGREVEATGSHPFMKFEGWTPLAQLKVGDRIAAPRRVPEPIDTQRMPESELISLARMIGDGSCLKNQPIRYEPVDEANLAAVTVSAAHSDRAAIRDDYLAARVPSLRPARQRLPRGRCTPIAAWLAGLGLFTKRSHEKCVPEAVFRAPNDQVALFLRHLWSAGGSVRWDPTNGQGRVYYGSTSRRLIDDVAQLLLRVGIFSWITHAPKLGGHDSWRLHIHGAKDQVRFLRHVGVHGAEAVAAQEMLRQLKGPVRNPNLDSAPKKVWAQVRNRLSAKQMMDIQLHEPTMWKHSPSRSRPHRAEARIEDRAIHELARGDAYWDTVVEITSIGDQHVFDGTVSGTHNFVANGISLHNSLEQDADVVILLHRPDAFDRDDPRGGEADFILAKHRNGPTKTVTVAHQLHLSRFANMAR

[8] = target: T3, Apoptotic protease-activating factor 1 (Homo sapiens, UniProt O14727); assay type: functional
T3 sequence (O14727 whole entry): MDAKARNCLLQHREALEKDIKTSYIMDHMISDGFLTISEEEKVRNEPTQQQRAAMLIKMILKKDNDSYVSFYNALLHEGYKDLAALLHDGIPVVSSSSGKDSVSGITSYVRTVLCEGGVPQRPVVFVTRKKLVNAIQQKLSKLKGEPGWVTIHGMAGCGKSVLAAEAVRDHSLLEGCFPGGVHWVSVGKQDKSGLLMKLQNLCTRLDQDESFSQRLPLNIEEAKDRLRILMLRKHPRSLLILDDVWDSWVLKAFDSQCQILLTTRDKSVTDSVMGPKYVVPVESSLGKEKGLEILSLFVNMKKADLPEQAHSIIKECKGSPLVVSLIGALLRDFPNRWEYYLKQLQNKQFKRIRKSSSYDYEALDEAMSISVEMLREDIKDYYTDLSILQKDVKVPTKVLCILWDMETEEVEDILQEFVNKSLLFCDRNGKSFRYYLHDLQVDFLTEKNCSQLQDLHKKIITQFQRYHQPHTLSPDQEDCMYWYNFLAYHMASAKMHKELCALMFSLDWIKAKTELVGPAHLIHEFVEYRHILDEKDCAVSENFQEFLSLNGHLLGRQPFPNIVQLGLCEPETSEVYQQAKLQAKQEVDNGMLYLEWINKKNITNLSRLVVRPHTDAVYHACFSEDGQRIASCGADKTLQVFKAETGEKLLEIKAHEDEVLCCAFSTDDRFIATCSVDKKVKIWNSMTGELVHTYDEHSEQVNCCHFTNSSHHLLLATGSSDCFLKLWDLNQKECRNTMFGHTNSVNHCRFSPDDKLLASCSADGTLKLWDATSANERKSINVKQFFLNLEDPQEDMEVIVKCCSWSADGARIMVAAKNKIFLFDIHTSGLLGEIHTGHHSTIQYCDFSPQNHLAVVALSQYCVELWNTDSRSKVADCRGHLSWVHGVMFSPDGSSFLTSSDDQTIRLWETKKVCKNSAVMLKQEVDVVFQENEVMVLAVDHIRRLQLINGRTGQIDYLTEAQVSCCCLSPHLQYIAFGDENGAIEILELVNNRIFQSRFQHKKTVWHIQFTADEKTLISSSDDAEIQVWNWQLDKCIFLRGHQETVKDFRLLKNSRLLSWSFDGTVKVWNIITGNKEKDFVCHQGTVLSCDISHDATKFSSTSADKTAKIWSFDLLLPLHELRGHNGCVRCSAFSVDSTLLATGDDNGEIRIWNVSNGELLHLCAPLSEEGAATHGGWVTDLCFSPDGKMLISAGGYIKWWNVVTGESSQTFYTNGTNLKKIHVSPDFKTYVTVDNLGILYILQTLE

[9] = target: T4, Protein RecA (Mycobacterium tuberculosis, UniProt P9WHJ3); assay: Fluorescence Cell-Free Homogeneous Dose Retest to Identify Inhibitors of RecA-Intein Splicing Activity. [Related pubchem assays (depositor defined):AID2097, AID2223, AID489010, AID492950]; assay type: functional
T4 sequence (P9WHJ3 whole entry): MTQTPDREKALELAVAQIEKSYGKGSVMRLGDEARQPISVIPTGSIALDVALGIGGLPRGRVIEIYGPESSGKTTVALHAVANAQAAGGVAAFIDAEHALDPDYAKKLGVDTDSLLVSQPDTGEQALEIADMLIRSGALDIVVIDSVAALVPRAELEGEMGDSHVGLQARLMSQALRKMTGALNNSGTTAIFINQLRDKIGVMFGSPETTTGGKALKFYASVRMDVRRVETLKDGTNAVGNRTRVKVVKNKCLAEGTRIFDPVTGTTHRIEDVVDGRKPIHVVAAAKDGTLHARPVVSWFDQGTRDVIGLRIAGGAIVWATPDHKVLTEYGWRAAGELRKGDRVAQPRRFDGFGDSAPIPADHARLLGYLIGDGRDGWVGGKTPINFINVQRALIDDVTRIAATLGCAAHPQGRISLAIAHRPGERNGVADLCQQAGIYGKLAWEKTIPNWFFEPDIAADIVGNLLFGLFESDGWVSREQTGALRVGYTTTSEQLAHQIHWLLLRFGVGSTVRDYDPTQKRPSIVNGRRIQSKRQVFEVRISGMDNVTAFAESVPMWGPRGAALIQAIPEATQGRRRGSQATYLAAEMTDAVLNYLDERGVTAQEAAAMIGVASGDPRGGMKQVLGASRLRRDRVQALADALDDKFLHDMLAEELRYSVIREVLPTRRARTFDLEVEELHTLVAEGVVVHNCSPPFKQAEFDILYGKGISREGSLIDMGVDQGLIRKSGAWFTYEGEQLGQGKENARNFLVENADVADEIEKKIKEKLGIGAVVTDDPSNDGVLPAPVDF

[10] = tested on: INS1; assay: beta cell apoptosis inhibitors, cytokine rescue, dose response, luminescence, retest (AID 449756); assay type: functional, cell-based; settings: Rattus norvegicus;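 note: cell death triggered by IL-1 beta plus TNF-alpha plus IFN-gamma mixture; protective hits raise ATP signal compared with cytokine alone wells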
[11] = target: Tyrosyl-DNA phosphodiesterase 2 (Homo sapiens, UniProt O95551); assay: human TDP2 enzyme inhibitors, dose response, biochemical, epi absorbance, IC50 (AID 743297)
Chain of Tyrosyl-DNA phosphodiesterase 2 (O95551 whole entry): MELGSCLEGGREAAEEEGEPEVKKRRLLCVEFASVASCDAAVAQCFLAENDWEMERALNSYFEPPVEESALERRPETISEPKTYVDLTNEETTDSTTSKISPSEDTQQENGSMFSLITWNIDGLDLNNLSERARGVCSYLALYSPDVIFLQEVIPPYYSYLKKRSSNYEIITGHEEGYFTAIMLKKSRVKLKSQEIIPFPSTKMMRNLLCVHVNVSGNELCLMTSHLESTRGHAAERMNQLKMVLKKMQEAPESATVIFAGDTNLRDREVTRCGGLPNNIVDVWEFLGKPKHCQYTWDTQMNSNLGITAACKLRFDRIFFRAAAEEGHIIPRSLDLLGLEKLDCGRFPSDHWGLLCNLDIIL

[12] = tested on: Streptococcus sp. 'group A'; assay: growth inhibition of control SK(-) GAS strain, dose response, counter-screen for streptokinase expression inhibitor project, luminescence, kanamycin, BacTiterGlo, confirmation (AID 1900); assay type: functional, organism-based
[13] = tested on: BJ; assay: cytotoxicity toward BJ-TERT fibroblasts, dose response, cell-based, RAS-independent, luminescence (AID 1933); assay type: functional; settings: Homo sapiens
[14] = cells; assay type: functional, cell-based
[15] = target: T5, Beta-galactosidase (Escherichia coli, UniProt Q8VNN2); assay: PubChem AID 485352; assay type: functional
T5 sequence (Q8VNN2 whole entry): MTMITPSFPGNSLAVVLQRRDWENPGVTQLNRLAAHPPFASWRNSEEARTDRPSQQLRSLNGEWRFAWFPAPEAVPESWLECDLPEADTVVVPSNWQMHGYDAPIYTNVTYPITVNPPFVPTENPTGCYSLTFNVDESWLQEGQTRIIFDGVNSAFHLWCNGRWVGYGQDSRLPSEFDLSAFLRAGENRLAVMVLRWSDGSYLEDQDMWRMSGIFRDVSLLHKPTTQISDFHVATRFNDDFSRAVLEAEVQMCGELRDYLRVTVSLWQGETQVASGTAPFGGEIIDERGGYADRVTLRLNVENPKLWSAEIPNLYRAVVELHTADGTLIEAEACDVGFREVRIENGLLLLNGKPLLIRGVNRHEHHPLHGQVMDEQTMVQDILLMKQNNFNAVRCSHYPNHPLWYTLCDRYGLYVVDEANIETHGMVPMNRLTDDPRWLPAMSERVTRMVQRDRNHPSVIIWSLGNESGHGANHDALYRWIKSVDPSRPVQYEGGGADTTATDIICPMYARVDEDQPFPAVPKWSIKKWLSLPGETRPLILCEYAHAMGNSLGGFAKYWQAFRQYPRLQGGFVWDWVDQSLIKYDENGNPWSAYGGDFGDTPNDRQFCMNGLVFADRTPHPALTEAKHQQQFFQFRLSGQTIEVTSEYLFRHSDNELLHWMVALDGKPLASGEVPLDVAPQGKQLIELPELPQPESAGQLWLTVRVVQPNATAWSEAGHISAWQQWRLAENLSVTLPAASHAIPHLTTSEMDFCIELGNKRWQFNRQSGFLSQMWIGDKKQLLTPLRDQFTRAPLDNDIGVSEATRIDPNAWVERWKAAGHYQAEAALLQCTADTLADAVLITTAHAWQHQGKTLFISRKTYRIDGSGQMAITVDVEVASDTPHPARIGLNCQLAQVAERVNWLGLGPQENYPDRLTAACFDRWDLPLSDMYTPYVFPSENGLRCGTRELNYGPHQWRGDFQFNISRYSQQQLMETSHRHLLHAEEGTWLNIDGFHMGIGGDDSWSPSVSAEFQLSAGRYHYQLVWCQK

[16] = tested on: BJ; assay: cells; assay type: functional, cell-based; settings: Homo sapiens
[17] = target: T6, Type-1 angiotensin II receptor (Homo sapiens, UniProt P30556); assay: AT1 receptor antagonists, dose response, selectivity assay for APJ receptor antagonist project, cell-based, uHTS hits (AID 463214); assay type: functional;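 note: antagonist potency against angiotensin II stimulated AT1 response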
T6 sequence (P30556 whole entry): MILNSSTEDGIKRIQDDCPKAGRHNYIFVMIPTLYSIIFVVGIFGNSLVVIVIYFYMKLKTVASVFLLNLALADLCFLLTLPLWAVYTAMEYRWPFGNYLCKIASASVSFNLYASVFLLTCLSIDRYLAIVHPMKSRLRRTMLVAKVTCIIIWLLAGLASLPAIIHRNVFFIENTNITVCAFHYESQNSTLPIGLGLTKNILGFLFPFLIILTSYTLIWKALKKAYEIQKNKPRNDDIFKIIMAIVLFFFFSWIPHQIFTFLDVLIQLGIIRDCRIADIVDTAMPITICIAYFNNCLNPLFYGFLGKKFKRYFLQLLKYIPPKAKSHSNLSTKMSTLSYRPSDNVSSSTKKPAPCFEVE

[18] = cells; assay type: functional, cell-based; remark: listed apart in the source
[19] = target: T7, Kappa-type opioid receptor (Homo sapiens, UniProt P41145); assay type: functional
T7 sequence (P41145 whole entry): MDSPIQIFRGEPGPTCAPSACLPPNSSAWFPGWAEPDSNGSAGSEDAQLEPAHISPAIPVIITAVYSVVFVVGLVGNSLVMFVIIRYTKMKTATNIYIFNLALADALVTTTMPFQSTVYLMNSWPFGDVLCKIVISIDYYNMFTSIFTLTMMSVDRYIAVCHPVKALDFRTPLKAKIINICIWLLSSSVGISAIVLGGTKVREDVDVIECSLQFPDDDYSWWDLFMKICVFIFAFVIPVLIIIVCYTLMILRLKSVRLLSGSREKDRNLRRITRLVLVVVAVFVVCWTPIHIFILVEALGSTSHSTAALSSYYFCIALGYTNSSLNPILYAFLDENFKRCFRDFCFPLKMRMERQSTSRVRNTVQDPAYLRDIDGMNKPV

[20] = target: T5, Beta-galactosidase; assay type: functional
[21] = tested on: BJ; assay: cytotoxicity toward BJ-TERT-LT-ST fibroblasts, dose response, cell-based, RAS-independent, luminescence (AID 1935); assay type: functional; settings: Homo sapiens;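 note: BJ fibroblasts immortalized with TERT plus LT and ST oncogenes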
[22] = target: T7, Kappa-type opioid receptor; assay type: functional; remark: listed apart in the source
[23] = cytotoxicity toward DRD oncogenic fibroblasts, dose response, cell-based, non-viral oncogenic, luminescence (AID 1934); assay type: functional; settings: Homo sapiens
[24] = tested on: Streptococcus; assay: Group A Streptococcus viability loss, dose response, counter-screen for streptokinase expression inhibitor project, luminescence, BacTiterGlo (AID 1915); assay type: functional, organism-based;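 note: potency for reduction of bacterial viability or growth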
[25] = target: Nonstructural protein 1 (Influenza A virus, UniProt Q194T2); assay type: functional, Influenza A virus (A/California/07/2009(H1N1))
Chain of Nonstructural protein 1 (Q194T2 whole entry): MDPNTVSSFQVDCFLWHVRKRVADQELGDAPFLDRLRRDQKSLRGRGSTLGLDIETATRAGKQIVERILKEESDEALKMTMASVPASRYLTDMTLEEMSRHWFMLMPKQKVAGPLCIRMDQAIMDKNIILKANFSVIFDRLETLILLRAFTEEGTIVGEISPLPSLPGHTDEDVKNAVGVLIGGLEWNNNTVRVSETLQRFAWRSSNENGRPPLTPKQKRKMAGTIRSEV

[26] = target: Heat shock protein HSP 90-alpha (Homo sapiens, UniProt P07900); assay type: functional, organism-based
[27] = tested on: BJ; assay: cytotoxicity toward Ras-transformed BJeLR fibroblasts, dose response, cell-based, alamar blue fluorescence, cherrypicked samples (AID 2631); assay type: functional; settings: Homo sapiens;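 note: confirmatory dose-response assay in RAS-dependent BJ fibroblasts engineered with TERT, LT and ST, with cytotoxicity read by fluorescence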
[28] = target: Photoreceptor-specific nuclear receptor (Homo sapiens, UniProt Q9Y5X4); assay type: functional, cell-based;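 note: CHO-S cells with Gal4-NCOR and VP16-NR2E3 two-hybrid luciferase reporter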
Chain of Photoreceptor-specific nuclear receptor (Q9Y5X4 whole entry, the tested form may be a part): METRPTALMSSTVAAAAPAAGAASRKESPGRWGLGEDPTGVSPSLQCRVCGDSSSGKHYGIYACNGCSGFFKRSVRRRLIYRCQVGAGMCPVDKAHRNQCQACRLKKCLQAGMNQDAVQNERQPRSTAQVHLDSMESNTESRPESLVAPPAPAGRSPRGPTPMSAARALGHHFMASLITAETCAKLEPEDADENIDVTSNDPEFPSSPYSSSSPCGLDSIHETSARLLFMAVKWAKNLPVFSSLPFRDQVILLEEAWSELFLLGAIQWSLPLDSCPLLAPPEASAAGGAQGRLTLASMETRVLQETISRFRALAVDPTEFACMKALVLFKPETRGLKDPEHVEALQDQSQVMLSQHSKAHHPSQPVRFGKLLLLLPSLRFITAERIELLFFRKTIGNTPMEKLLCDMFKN

[29] = miR-122 activators in hepatoma reporter cells, dose response, cell-based, Huh7 psiCHECK-miR122, Renilla luciferase, cherry-picked (AID 651956); assay type: functional;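 note: huh7 hepatoma cells stably carrying a psiCHECK-2 miR-122 sensor plasmid; renilla luciferase signal reporting endogenous miR-122 activity after 48 h compound exposure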
[30] = HEK293T cytotoxicity, dose response, cytotoxicity control for miR-122 modulator project, cell-based, inhibitor set, cherry-pick, set 2 (AID 720697); assay type: functional
[31] = HEK293T cytotoxicity, dose response, cytotoxicity control for miR-122 modulator project, cell-based, activator set, cherry-pick (AID 720690); assay type: functional;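 note: HEK293T human cells scored for general mammalian cytotoxicity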

O=C1OC(=O)/C(=C\NCCN2CCOCC2)C=C1Br
inactive: IC50 [1] 61 µM | IC50 [2] 67 µM

COc1ccc(NC2=C(N3CCN(C)CC3)C(=O)c3ccccc3C2=O)cc1
inactive: AC50 [4] > 70 µM
active: AC50 [3] 16.4 µM | AC50 [5] 24.9 µM

CC(=O)Nc1ccc(S(=O)(=O)NC2=C(N3CCN(c4ccc(F)cc4)CC3)C(=O)c3ccccc3C2=O)cc1
active: AC50 [7] 4.98 µM | IC50 [8] 17.4 µM | EC50 [9] 10.4 µM | AC50 [10] 4.96 µM
inactive: EC50 [6] > 260 µM | IC50 [11] > 128 µM

Cc1cccnc1Nc1nc(-c2ccccn2)cs1
inconclusive: EC50 [21] 6.23 µM | EC50 [23] 15.3 µM
> 32 µM: IC50 [22]
inactive: EC50 [15] > 40 µM | EC50 [20] > 31.5 µM
active: EC50 [12] 1.1 µM | EC50 [13] 1.46 µM | EC50 [14] 3.13 µM | EC50 [16] 2.18 µM | IC50 [17] 2.24 µM | EC50 [18] 3.45 µM | IC50 [19] 2.9 µM | EC50 [24] 6.4 µM | IC50 [25] 2.83 µM | EC50 [6] 3.33 µM | AC50 [26] 4.65 µM | EC50 [27] 0.661 µM | AC50 [10] 0.29 µM | IC50 [28] 3.9 µM | AC50 [29] 43.8 µM | AC50 [30] 0.503 µM | AC50 [31] 2.3 µM
